Experimental data from PMC3285657, “Biophysical Characterization and Membrane Interaction of the Two Fusion Loops of Glycoprotein B from Herpes Simplex Type I Virus” (PLoS ONE, 2012).
Residues, ends and D or L forms follow the SMILES beside them.

How the values were obtained:
[1] = Quenching of tryptophan/tyrosines by acrylamide (Stern-Volmer); format: physicochemical; conditions: peptide 1 µM; for Ksv (M^−1) in buffer: absence of liposomes, F0/F = 1+Ksv [Q]; for Ksv (M^−1) in LUVs: presence of liposomes, peptide/lipid molar ratio 1/200
Text: The observed changes in the characteristics of the tryptophan/tyrosine emission upon binding of peptides HB168–186 and HB254–270 to lipid vesicles indicate their insertion into the hydrophobic region of the bilayers. We also studied the accessibility of the tryptophan/tyrosine residues of membrane-bound peptides towards acrylamide, a neutral, water-soluble, highly efficient quenching molecule, which is unable to penetrate into the hydrophobic core of the lipid bilayer. The more deeply a tryptophan/tyrosine residue is buried, the less strongly it can be quenched by acrylamide. Stern-Volmer plots for the quenching of tryptophan by acrylamide, recorded in the absence and presence of lipid vesicles, are depicted in Figure 6. Fluorescence of tryptophan/tyrosine decreased in a concentration-dependent manner by the addition of acrylamide to the peptide solution both in the absence and presence of liposomes, without other effects on the spectra. However, we can observe a substantial difference between the two peptides.
Aliquots of a 4 M solution of the water-soluble quencher were added to the solution containing the peptide (1 µM) in the absence or presence of liposomes at a peptide/lipid molar ratio of 1/200. The maximal concentration of acrylamide is 0.2 mmol/ml. Tryptophan fluorescence was measured with an excitation wavelength of 295 nm, to reduce acrylamide absorbance (and the resulting inner filter effect), and emission at a wavelength of 340 nm, to eliminate interference from the Raman band of water and tyrosine fluorescence was measured with an excitation wavelength of 274 nm, and emission at a wavelength of 305. The data were analyzed according to the Stern-Volmer equation [68], F0/F = 1+Ksv [Q], where F0 and F represent the fluorescence intensities in the absence and the presence of the quencher (Q), respectively, and Ksv is the Stern-Volmer quenching constant, which is a measure of the accessibility of tryptophan to acrylamide. […] Accordingly, Ksv is determined by the amount of non-vesicle-associated free peptide as well as the fraction of the peptide residing at the surface of the bilayer.

[2] = Thioflavin T assay for peptide aggregation; format: physicochemical; conditions: for Aggregation state in the presence of DOPC/Chol LUVs (ThT fluorescence) / Aggregation state in aqueous medium (ThT fluorescence): peptide 4 µM, 100 mM NaCl, 10 mM Tris–HCl, 25 µM ThT, pH 7.4, 37°C; for Aggregation state in the presence of DOPC/Chol LUVs (ThT fluorescence): 0.1 mM phospholipid; for Aggregation state in aqueous medium (ThT fluorescence): ex 450 nm / em 482 nm; for Oligomerization in aqueous solution / Oligomerization inside / interacting with the membrane: summary in discussion
Experimental: The peptide's aggregation state in buffer and DOPC/Chol LUVs was assayed using ThT [36], in order to know the possible effects of the peptide aggregation on the membranes. As observed in Figure 4 A–B, the two peptides present a completely different behaviour.
Peptide aggregation was assayed using Thioflavin T (ThT). ThT associates rapidly with aggregated peptides giving rise to a new excitation maximum at 450 nm and an enhanced emission at 482 nm. LUVs in 100 mM NaCl, 10 mM Tris–HCl, 25 µM ThT, pH 7.4 (final phospholipid concentration of 0.1 mM) were titrated with a peptide concentration of 1, 4, 8, 12, 16, 20 µM. Fluorescence was measured before and after the desired amount of peptide was added into the cuvette using a Varian Cary Eclipse fluorescence spectrometer at 37°C. Samples were excited at 450 nm (slit width, 5 nm) and fluorescence emission was recorded at 482 nm (slit width, 5 nm). Aggregation was quantified according to the equation, %A = (Ff−F0)/(Fmax−F0)×100, where Ff is the value of fluorescence after peptide addition, F0 the initial fluorescence in the absence of peptide and Fmax is the fluorescence maximum obtained immediately after peptide addition. Kinetic data were obtained at a concentration of 4 µM.

[3] = Lipid mixing assay (NBD-PE/Rho-PE resonance energy transfer); conditions: 0.1 mM lipid, 37°C
Experimental: To investigate the fusogenicity of gB peptides, NBD and Rho labelled PE were used as the donor and acceptor of fluorescence energy transfer. A population of LUVs labelled with both was mixed with a population of unlabelled LUVs and increasing amounts of peptides were added. […] The dependence of the extent of lipid mixing on the peptide to lipid molar ratio was analysed. The fusogenic capacity was monitored by measuring their ability to induce lipid mixing of model membranes composed of DOPG, DOPG/Chol (3/2), DOPC, DOPC/Chol (3/2), POPC/Chol (3/2), and POPC/Chol/SM at various ratios (4/1/1, 2/1/1, 1/1/1).
Figure 2 Ability of peptides to induce lipid mixing. Peptide-promoted membrane fusion as determined by lipid mixing; peptide aliquots were added to 0.1 mM LUVs, containing 0.6% NBD and 0.6% Rho. The increase in fluorescence was measured after the addition of peptide aliquots; reduced Triton-X-100 (0.05% v/v) was referred to as 100% of fusion. In figure is reported the dose dependence of lipid mixing at 37°C: panels A and B HB168–186 and HB254–270 in LUVs of different composition; panels C and D HB168–186 and HB254–270 in LUVs mimicking lipid rafts; panel E HB168–186, HB254–270 and shorter versions in DOPC/Chol LUVs; panel F equimolecular mixtures of peptides HB168–186 and HB254–270 in DOPC/Chol (3/2) and POPC/Chol/SM (2/1/1).
Membrane lipid mixing was monitored using the resonance energy transfer assay (RET) reported by Struck et al.. The assay is based on the dilution of the NBD-PE (donor) and Rho-PE (acceptor). Dilution due to membrane mixing results in an increase in NBD-PE fluorescence. The change in donor emission was monitored as aliquots of peptides were added to vesicles. […] The fluorescence scale was calibrated such that the zero level corresponded to the initial residual fluorescence of the labelled vesicles and the 100% value corresponding to complete mixing of all lipids in the system was set by the fluorescence intensity of vesicles upon the addition of Triton X-100 (0.05% v/v) at the same total lipid concentrations of the fusion assay. […]

[4] = target: the molecule itself; test: thioflavin T fluorescence (peptide aggregation)

Molecule	Ksv (M^−1) in buffer [1]	Ksv (M^−1) in LUVs [1]	Aggregation state in the presence of DOPC/Chol LUVs (ThT fluorescence) [2]	Aggregation state in aqueous medium (ThT fluorescence) [2]	Oligomerization in aqueous solution [2]	Oligomerization inside / interacting with the membrane [2]	Level of fusion (lipid mixing) in DOPC/Chol LUVs [3]	also measured
CC[C@H](C)[C@H](NC(=O)CNC(=O)[C@H](CCSC)NC(=O)[C@H](Cc1ccccc1)NC(=O)[C@H](CCC(N)=O)NC(=O)[C@H](CO)NC(=O)[C@H](Cc1ccc(O)cc1)NC(=O)[C@H](CCCNC(=N)N)NC(=O)[C@H](Cc1c[nH]cn1)NC(=O)CNC(=O)[C@H](Cc1ccccc1)NC(=O)[C@H](Cc1c[nH]c2ccccc12)NC(=O)[C@@H](NC(=O)[C@H](CCC(N)=O)NC(=O)[C@H](CO)NC(=O)[C@@H](NC(=O)[C@@H](NC(=O)[C@@H](N)C(C)C)[C@@H](C)O)C(C)C)C(C)C)C(=O)N[C@@H](Cc1ccccc1)C(=O)O [HB168–186] (H-VTVSQVWFGHRYSQFMGIF-OH)	8.3 ± 0.2 M⁻¹	6.4 ± 0.4 M⁻¹	lower aggregation	already aggregated	high tendency to oligomerize	high tendency to oligomerize		Aggregation as a function of peptide concentration (ThT fluorescence) ([2]; buffer and DOPC/Chol LUVs, high concentrations (titration 1, 4, 8, 12, 16, 20 µM), 37°C): aggregated both in the aqueous medium and in LUVs; Fusogenic ability (lipid mixing) ([3]; LUVs of DOPG, DOPG/Chol, DOPC, DOPC/Chol, POPC/Chol, Triton X-100 = 100%, at least three repeats averaged): higher fusogenic ability
CC(C)[C@H](N)C(=O)N[C@@H](Cc1c[nH]c2ccccc12)C(=O)N[C@@H](Cc1ccccc1)C(=O)NCC(=O)N[C@@H](Cc1c[nH]cn1)C(=O)N[C@@H](CCCNC(=N)N)C(=O)N[C@@H](Cc1ccc(O)cc1)C(=O)O [HB173–179] (H-VWFGHRY-OH)							lower levels of fusion compared to longer sequences	
CC(C)[C@H](NC(=O)[C@H](CCCNC(=N)N)NC(=O)[C@H](CO)NC(=O)[C@@H]1CCCN1C(=O)[C@H](CC(N)=O)NC(=O)[C@@H](N)Cc1ccc(O)cc1)C(=O)N[C@@H](CCC(=O)O)C(=O)N[C@@H](C)C(=O)N[C@@H](Cc1ccccc1)C(=O)N[C@@H](Cc1c[nH]cn1)C(=O)N[C@@H](CCCNC(=N)N)C(=O)N[C@@H](Cc1ccc(O)cc1)C(=O)NCC(=O)N[C@H](C(=O)N[C@H](C(=O)N[C@H](C(=O)N[C@@H](CC(N)=O)C(=O)O)C(C)C)[C@@H](C)O)[C@@H](C)O [HB254–270] (H-YNPSRVEAFHRYGTTVN-OH)	71.1 ± 1.1 M⁻¹	8.5 ± 0.1 M⁻¹	not aggregated	not aggregated	not oligomerized	able to oligomerize		
CC(C)[C@H](NC(=O)[C@@H](N)CCCNC(=N)N)C(=O)N[C@@H](CCC(=O)O)C(=O)N[C@@H](C)C(=O)N[C@@H](Cc1ccccc1)C(=O)N[C@@H](Cc1c[nH]cn1)C(=O)N[C@@H](CCCNC(=N)N)C(=O)N[C@@H](Cc1ccc(O)cc1)C(=O)O [HB258–265] (H-RVEAFHRY-OH)							lower levels of fusion compared to longer sequences	
VTVSQVWFGHRYSQFMGIF (source: synthetic peptide (solid-phase Fmoc method), purified (purity higher than 98%)) [HB168–186]								binding result [4]: binds
